Data from patent US5053404A, “Novel steroid derivatives, pharmaceutical compositions containing them and process for preparing same” (Richter Gedeon Vegyeszeti Gyar R. T., priority 1989, dated 1991).

What was measured:
[1] = tested on: local granuloma sac; assay: Local granuloma sac model, exudate (antiinflammatory effect); format: in vivo, rat; conditions: for Exudate / Inhibition (decrease in volume of exudate): 10th day; for Inhibition (decrease in volume of exudate): vs control
Procedure: (§1) 3) The local granuloma sac model
This method was used to investigate the antiexudative action of the topically administered glucocorticoids.
Groups consisting of 10 female RG Hann Wistar rats each weighing 130 to 150 g were used. […] After 5 days the content of the sac was removed by suction and once 3 doses each of the glucocorticoids to be tested or budesonide respectively, in a volume of 0.5 ml suspension in Tween 80 were administered by an injection syringe. On the 10th day following the start of the experiment the animals were sacrificed and the exudate liquid of the sac (expressed as ml) was measured. The percentage of the antiinflammatory effect was calculated based on the decrease in the volume of exudate related to that of the control.

[2] = tested on: thymus; assay: Thymus involution (systemic side effect) in local granuloma sac model; format: in vivo, rat; conditions: 10th day
Description: (§2) Two principal (essential) demands are set up against topically used steroid antiinflammatory drugs: a) they should be as active as possible in various animal experiments used for investigating the antiinflammatory action; and b) they should induce the lowest harmful systemic side effect. This latter effect can be well characterized by the thymus weight-decreasing action (involution). The possibly lowest toxicity (i.e. the possibly highest LD50 value) is an essential demand for any active agent (drug) used in therapy.
as §1
Groups consisting of 10 female RG Hann Wistar rats each weighing 130 to 150 g were used. After shaving the back of the animals 25 ml of air were injected beneath the back skin and 1 ml of 2% croton oil inducing inflammation was introduced to the air sac. After 5 days the content of the sac was removed by suction and once 3 doses each of the glucocorticoids to be tested or budesonide respectively, in a volume of 0.5 ml suspension in Tween 80 were administered by an injection syringe. On the 10th day following the start of the experiment the animals were sacrificed and the exudate liquid of the sac (expressed as ml) was measured. The percentage of the antiinflammatory effect was calculated based on the decrease in the volume of exudate related to that of the control.
Then, the thymi of the animals were excised and the harmful systemic side effect of the test compounds was calculated as a percentage based on the comparison of the thymus weight of animals treated with the test compounds to that of the untreated control group.

[3] = Comparative acute toxicity (LD50), rats; conditions: rat, in vivo, 2-week observation
Procedure: (§3) 1) Comparative study on the acute toxicity
(§4) Animal groups consisting of 10 CFLP mice or RG Hann Wistar rats each of both sexes were used. The doses causing the death of 50% of the animals (LD50 values) within a 2-week observation period following subcutaneous (s.c.) or oral (p.o.) administration were determined.

[4] = tested on: thymus; assay: Thymus involution (systemic side effect) in croton oil-induced contact dermatitis model; format: in vivo, rat; conditions: 48th hour
Description: as §2
(§5) 2) The croton oil-induced contact dermatitis model
(§6) Infantile female rats weighing 45 to 55 g were used. Animals had previously been selected for this test, the ear weight of which increased at least by 100% under effect of a treatment with 2% croton oil.
(§7) The test compounds were dissolved in a 2% croton oil mixture in various concentrations and then applied onto the ears of the animals. The control group was treated only with the croton oil inducing inflammation. Six hours after treatment the ears of the animals were cut off and weighed. For evaluation, the diminution of the ear weight increase was expressed as "percentage of inhibition", in comparison to the control treated with croton oil only. In the 48th hour the thymi of the animals were excised and the harmful systemic side effect of the test compounds was evaluated by comparing their thymus weight to that of the control animals.

[5] = Comparative acute toxicity (LD50), mice; conditions: mouse, in vivo, 2-week observation
Procedure: as §3, §4

[6] = tested on: experimental asthma; assay: Experimental asthma model (ovalbumin); format: in vivo, guinea-pig; conditions: 50 mg/kg i.p. 20 hours before i.v. ovalbumin provocation
Description: 4) The experimental asthma model
This test was used to investigate the antiasthmatic effect of the test compounds.
It is known that by ovalbumin (OA) treatment an experimental asthma can be induced on guinea-pigs which is accompanied by dyspnoea and causes the death of the animals in severe cases. This test is useful to detect an eventual antiasthmatic effect of the test compounds.
Guinea-pigs of both sexes weighing 300 to 400 g each were used. The experimental animals were sensitized by i.p. ovalbumin (10/ μg of OA+100 mg of aluminum hydroxide/animal) and after 30 days they were provoked by the intravenous (i.v.) administration of 100 mg/kg of OA. Both the test compounds and budesonide used as reference substance were given 50 mg/kg i.p. dose 20 hours before the provocation. The percentage occurrence of dyspnoea and the survival were observed.

[7] = tested on: croton oil-induced contact dermatitis; assay: Croton oil-induced contact dermatitis model, ear weight; format: in vivo, rat; conditions: for Ear weight / Inhibition (of ear weight increase): topical on ear, 6 hours; for Inhibition (of ear weight increase): vs croton oil control
Procedure: as §5, §6, §7

CCCC1O[C@@H]2C=C3[C@@H]4CCC5=CC(=O)C=C[C@]5(C)[C@H]4[C@@H](O)C[C@]3(C)[C@]2(C(=O)CO)O1 (stereo partly drawn) [Ex. No. 2, 11β,16α,17,21-tetrahydroxypregna-1,4,14-trien-3,20-dion-16,17-cyclic butyraldehyde acetal]
Exudate ([1]; 0.22 μg/sac): 7.47 ± 0.5 mL | Inhibition (decrease in volume of exudate) ([1]; 0.22 μg/sac): 41.32% | Exudate ([1]; 2.00 μg/sac): 5.10 ± 0.4 mL | Inhibition (decrease in volume of exudate) ([1]; 2.00 μg/sac): 59.94% | Exudate ([1]; 18.00 μg/sac): 1.36 ± 0.2 mL | Inhibition (decrease in volume of exudate) ([1]; 18.00 μg/sac): 89.32% | Relative activity ([1]; relative to budesonide = 100, on 2.00 μg/sac line): 62 | Thymus involution ([2]; 0.22 μg/sac): 0% | Thymus involution ([2]; 2.00 μg/sac): 0% | Thymus involution ([2]; 18.00 μg/sac): 0% | LD50 at 336 h ([3]; po, female): > 3000 mg/kg | LD50 at 336 h ([3]; po, male): > 4000 mg/kg | LD50 at 336 h ([3]; sc, female): 843 mg/kg | LD50 at 336 h ([3]; sc, male): 1210 mg/kg | Thymus involution ([4]; 1 μg/ml topical on ear): 0% | Thymus involution ([4]; 10 μg/ml topical on ear): 0% | Thymus involution ([4]; 100 μg/ml topical on ear): 9.8% | LD50 at 336 h ([5]; po, female): > 4000 mg/kg | LD50 at 336 h ([5]; po, male): > 4000 mg/kg | LD50 at 336 h ([5]; sc, female): 823 mg/kg | LD50 at 336 h ([5]; sc, male): 585 mg/kg | Dyspnoea (percentage occurrence) ([6]; control 33): 14% | Survival ([6]; control 66): 43% | Ear weight ([7]; 1 μg/ml in 2% croton oil): 144.60 ± 2.8 mg | Inhibition (of ear weight increase) ([7]; 1 μg/ml): 19.56% | Ear weight ([7]; 10 μg/ml in 2% croton oil): 131.10 ± 2.7 mg | Inhibition (of ear weight increase) ([7]; 10 μg/ml): 35.59% | Ear weight ([7]; 100 μg/ml in 2% croton oil): 118.20 ± 2.2 mg | Inhibition (of ear weight increase) ([7]; 100 μg/ml): 50.90% | Relative activity ([7]; relative to budesonide = 100, on 10 μg/ml line): 78
